“And” between values parts separate entries of the source, which are not always exact repeats. Identical values can stand only once.

One assay relates to MSSA ATCC 29213. Description: Broth microdilution MIC, MSSA ATCC 29213. The assay is classed as cell-based, S. aureus. Here is the method: (§1) The data is given in supporting information (Table S5). Before starting the experiment, a single colony was picked from MHA plate, inoculated in MHBII and incubated overnight at 37 °C with shaking for 18–24 h to get the starter culture. Antibiotic susceptibility testing was conducted according to the CLSI (Clinical & Laboratory Standards Institute) guidelines using the broth microdilution assay. 10 mg/mL stock solutions of test compounds were prepared in DMSO. Bacterial cultures were inoculated in MHBII and optical density (OD) was measured at 600 nm, followed by dilution to achieve ~10^6 CFU/mL. The compounds were tested from 64 to 0.5 mg/L in two-fold serial diluted fashion with 2.5 μL of each concentration added to well of a 96-well round bottom microtiter plate. Later, 97.5 μL of bacterial suspension was added to each well containing either test compound or appropriate controls. […] The MIC is defined as the lowest concentration of the compound at which there is absence of visible growth. For each test compound, MIC determinations were carried out independently three times using duplicate samples.

For another assay, the system named is MRSA NRS 100. Nature of the assay: Broth microdilution MIC, MRSA NRS 100. It counts as cell-based, S. aureus. As to conditions: MRSA NRS 100. How it is done:
as §1

The subject of the next assay is MRSA NRS 194. Nature of the assay: Broth microdilution MIC, MRSA NRS 194. It counts as cell-based, S. aureus. As to conditions: MRSA NRS 194. How it is done: as §1
Assay [1] deals with B. subtilis 168CA. Description: Propidium iodide pore assay. As to conditions: 3.125 µM Pt1, 25 µM Pt8; 30 and 60 min. The assay is classed as cell-based, Bacillus subtilis. How it is done: Propidium iodide staining was performed as described previously. B. subtilis 168CA was grown to an OD600 of 0.3 prior to splitting of the parent culture and treatment with the different antibiotics. After 15 and 45 min, samples were stained with 13.3 µg/mL propidium iodide for 15 min (total treatment times 30 and 60 min), and washed 3 times with phosphate-buffered saline (PBS). Fluorescence signals were recorded at an excitation wavelength of 535–15 nm and an emission wavelength of 617–20 nm in a BMG Clariostar Plus plate reader.

Assay [2] relates to B. subtilis 168CA. Nature of the assay: ROS scavenger assay (modified MIC assay). The assay is classed as cell-based, Bacillus subtilis. Here is the method: LB media were prepared to contain either 10 mM tiron, 150 mM thiourea, 10 mM tiron and 150 mM thiourea, or no […]. Serial two-fold dilutions of the different antibiotics were prepared in the respective media and transferred to 96-well plates. […] The OD600 was meassured in a BMG Clariostar Plus plate reader.

As to `C1=C\CC/C=C\CC/1.[Cl][Pt][Cl]` [Pt1], the MIC in the assay on MSSA ATCC 29213 (MSSA ATCC 29213) was 0.67 µM; with MSSA ATCC 29213 (MSSA ATCC 29213, Table S5), 0.25 µg/mL; against MSSA ATCC 29213 (S.aureus ATCC 29213 (unpassaged), Table S9) it was 0.0625 µg/mL; against MRSA NRS 100 it was 0.67 to 1.34 µM; against MRSA NRS 194 it was 0.125 – 0.25 µg/mL and 0.33–0.67 µM. Further, the “propidium iodide (PI) uptake” value in the assay with B. subtilis 168CA [1] is on record as “Neither Pt1 nor Pt8 showed increased PI uptake”. Further, the “MIC fold change (increase) with scavenger” value with B. subtilis 168CA [2] (medium containing 150 mM thiourea (hydroxyl radical scavenger)) was “tenfold”. In the assay on B. subtilis 168CA [2] (medium containing both tiron and thiourea), the “MIC fold change (increase) with scavengers” value is on record as 13 fold.

Values taken from publication PMC13183915, “A platinum butterfly effect: small changes turn an anticancer drug into a non-toxic metalloantibiotic with in vivo efficacy” (npj Antimicrobials and Resistance, 2026).
